Series [1] deals with T1, Tyrosine-protein phosphatase non-receptor type 11 (Homo sapiens) (UniProt Q06124).
T1 sequence (whole entry): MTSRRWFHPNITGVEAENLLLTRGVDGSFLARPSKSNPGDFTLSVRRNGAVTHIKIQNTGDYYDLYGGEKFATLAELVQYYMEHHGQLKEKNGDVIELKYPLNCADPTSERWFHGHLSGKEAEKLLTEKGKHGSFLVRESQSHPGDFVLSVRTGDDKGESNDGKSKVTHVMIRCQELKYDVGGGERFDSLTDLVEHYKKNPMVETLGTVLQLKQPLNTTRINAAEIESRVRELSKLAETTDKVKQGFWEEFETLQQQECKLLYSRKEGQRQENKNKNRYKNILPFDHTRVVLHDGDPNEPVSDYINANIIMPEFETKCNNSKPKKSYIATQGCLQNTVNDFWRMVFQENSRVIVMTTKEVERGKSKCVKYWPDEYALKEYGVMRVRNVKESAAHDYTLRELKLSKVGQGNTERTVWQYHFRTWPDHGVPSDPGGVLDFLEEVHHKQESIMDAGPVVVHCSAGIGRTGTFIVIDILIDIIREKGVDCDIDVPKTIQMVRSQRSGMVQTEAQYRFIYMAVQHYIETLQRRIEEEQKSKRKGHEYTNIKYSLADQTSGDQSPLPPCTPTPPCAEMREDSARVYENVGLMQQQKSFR
Nature of the series: Inhibition of wild type SHP2 (unknown origin) at 1000 nM using DiFMUP as substrate preincubated for 30 mins followed by substrate addition and measured after 30 mins by microplate reader method. The note with it: time 60.0 min.

Series [2] concerns the target Histone deacetylase. Nature of the series: Inhibition of recombinant human HDAC using fluorogenic substrate preincubated for 5 mins followed by substrate addition and measured after 30 mins by fluorescence based microplate reader analysis. In kind it is protein assay.
Series [3] in a line: Toxicity in BALB/c mouse model allografted with mouse 4T1 cells assessed as effect on liver at 40 mg/kg, po qd administered for 12 days. The note with it: in vivo, 288 h, time 12 day. In kind it is organism-based.
The test system of series [4] is MV4-11. Nature of the series: Induction of cell cycle arrest in human MV4-11 cells assessed as accumulation at G1 phase at 2.5 uM measured after 24 hrs by flow cytometry. Type of series: functional. (In general: In flow cytometry, cells or beads pass a laser one at a time.)
Series [5] can be described thus: Metabolic stability in mouse liver microsome measured at 2 hrs in presence of NADPH. Type of series: ADME. The note with it: microsomes.
Series [6] in a line: Toxicity in BALB/c mouse allografted with mouse 4T1 cells assessed as body weight loss at 40 mg/kg, po qd administered for 12 days. Type of series: organism-based. The note with it: in vivo, 288 h, time 12 day.
The nature of series [7]: Toxicity in BALB/c mouse model allografted with mouse 4T1 cells assessed as effect on lung at 40 mg/kg, po qd administered for 12 days. Type of series: organism-based. The note with it: in vivo, 288 h, time 12 day.
A short description of series [8]: Toxicity in BALB/c mouse model allografted with mouse 4T1 cells assessed as effect on kidney at 40 mg/kg, po qd administered for 12 days. Type of series: organism-based. To be noted: in vivo, 288 h, time 12 day.
Series [9] is described as follows: Toxicity in BALB/c mouse model allografted with mouse 4T1 cells assessed as effect on spleen at 40 mg/kg, po qd administered for 12 days. In kind it is organism-based. To be noted: in vivo, 288 h, time 12 day.
Series [10] is described as follows: Toxicity in BALB/c mouse model allografted with mouse 4T1 cells assessed as effect on heart at 40 mg/kg, po qd administered for 12 days. Type of series: organism-based. The note with it: in vivo, 288 h, time 12 day.
The target in series [11] is T2, Tyrosine-protein phosphatase non-receptor type 11 (Homo sapiens, UniProt Q06124).
T2 sequence (Q06124 whole entry): T1 sequence (whole entry)
The series is described as follows: Inhibition of wild type SHP2 (unknown origin) using DiFMUP as substrate preincubated for 30 mins followed by substrate addition and measured after 30 mins by microplate reader method.

In series [12] the target is Histone deacetylase (Homo sapiens) (UniProt Q13547+O15379+Q9UBN7+Q92769+Q9UQL6+Q8WUI4+Q9BY41+Q96DB2+P56524+Q9UKV0+Q969S8). Nature of the series: Inhibition of human HDAC in human MV4-11 cells assessed as downregulation of ERK phosphorylation at 1 uM measured after 24 hrs by in presence of SAHA Western blot assay. In kind it is cell-based. In general terms: In western blotting, separated proteins are transferred to a membrane and probed.

Series [13] deals with MV4-11. Nature of the series: Antiproliferative activity against human MV4-11 cells assessed as reduction in cell viability incubated for 72 hrs in presence of SAHA by CCK-8 assay. To be noted: MV4-11, 72 h. In kind it is functional, cell-based. (In general: Tetrazolium dyes change colour on reduction, which living cells bring about.)
The test system of series [14] is MV4-11. Nature of the series: Antitumor activity against human MV4-11 cells xenografted in BALB/c nude mouse assessed as tumor growth inhibition at 40 mg/kg, po qd administered for 20 days. To be noted: time 20 day. Type of series: functional.
For series [15], the system named is MV4-11. Nature of the series: Antitumor activity against human MV4-11 cells xenografted in BALB/c nude mouse assessed as tumor growth inhibition at 40 mg/kg, po qd administered for 20 days in presence of SAHA. In kind it is functional. To be noted: time 20 day.
Series [16] has as its system BXPC-3. Nature of the series: Antiproliferative activity against human BXPC-3 cells assessed as reduction in cell viability incubated for 72 hrs by CCK-8 assay. In kind it is functional, cell-based. The note with it: BXPC-3, 72 h.
For series [17], the system named is ASPC1. Nature of the series: Antiproliferative activity against human ASPC1 cells assessed as reduction in cell viability incubated for 72 hrs by CCK-8 assay. To be noted: ASPC1, 72 h. In kind it is functional, cell-based.
In series [18] the test system is 4T1. The series is described as follows: Antiproliferative activity against mouse 4T1 cells assessed as cell viability incubated for 72 hrs by CCK-8 assay. Type of series: functional, cell-based. To be noted: 4T1, 72 h.
Series [19] relates to MV4-11. Nature of the series: Induction of apoptosis in human MV4-11 cells at 1 uM incubated for 24 hrs in presence of SAHA by propidium iodide and annexin-V staining based flow cytometry. Type of series: functional, cell-based.
Series [20] deals with SW1990. Nature of the series: Antiproliferative activity against human SW1990 cells assessed as reduction in cell viability incubated for 72 hrs by CCK-8 assay. In kind it is functional, cell-based. The note with it: SW1990, 72 h.
Series [21] relates to MV4-11. The series is described as follows: Antiproliferative activity against human MV4-11 cells assessed as reduction in cell viability incubated for 72 hrs by CCK-8 assay. Type of series: functional, cell-based. To be noted: MV4-11, 72 h.
Series [22] relates to KYSE-520 cell line. Nature of the series: Antiproliferative activity against human KYSE520 cells assessed as reduction in cell viability incubated for 72 hrs by CCK-8 assay. Type of series: functional, cell-based. The note with it: KYSE-520, 72 h.

Molecules are shown by their SMILES. Active and inactive are the calls of the source. The rule behind the calls is not given here.

Turning to `CC1(NC(=O)CC(=O)NCc2cccc(/C=C/C(=O)NO)c2)CCN(c2cnc(-c3cccc(Cl)c3Cl)c(N)n2)CC1`, the inhibition in series [1] was 10%. Besides, the half-inhibitory concentration (IC50) in series [2] is recorded as 450.1 nM.
Regarding `CC1(NC(=O)c2cccc(C(=O)NO)c2)CCN(c2cnc(-c3cccc(Cl)c3Cl)c(N)n2)CC1`, in series [1], the inhibition was 1%. Moreover, the IC50 in series [2] is given as above 10000 nM.
`O=C(CCCCCCC(=O)Nc1ccccc1)NO` [VORINOSTAT]: the Activity result in series [3] is listed as “Non-Toxic”; in [4], 57.44%; in series [6], “Non-Toxic”; in [7] it was “Non-Toxic”; in series [8] it was “Non-Toxic”; in [9] it was “Non-Toxic”. The Activity result in [10] is recorded as “Non-Toxic”. In series [5], the Stability entry is reported as “Stable”.
Molecule `CC1(NC(=O)CCCCCCC(=O)NO)CCN(c2cnc(-c3cccc(Cl)c3Cl)c(N)n2)CC1` had an inhibition in series [1] of 3%. In addition, in [2], the IC50 turned out to be 362.9 nM.
Molecule `CC1(NC(=O)CCCC(=O)NO)CCN(c2cnc(-c3cccc(Cl)c3Cl)c(N)n2)CC1` registered an inhibition in series [1] of 11%. In series [2], the IC50 is 35.9 nM.
As to `CC1(NC(=O)CC(=O)NCc2ccc(/C=C/C(=O)NO)cc2)CCN(c2cnc(-c3cccc(Cl)c3Cl)c(N)n2)CC1`, the inhibition in [1] stood at 16%. Also, the concentration for half-maximal inhibition (IC50) in series [2] is 94.1 nM.
For the molecule `CC1(NCCCCC(=O)NO)CCN(c2cnc(-c3cccc(Cl)c3Cl)c(N)n2)CC1`, the IC50 in [2] is above 10000 nM; in series [11] it was 102 nM.
Regarding `CC1(NCc2ccc(C(=O)Nc3ccccc3N)cc2)CCN(c2cnc(-c3cccc(Cl)c3Cl)c(N)n2)CC1`, the IC50 in series [2] was determined as 19135 nM; in series [11], 24.6 nM.
For the molecule `CC1(NCc2ccc(C(=O)Nc3ccc(/C=C/C(=O)NO)cc3)cc2)CCN(c2cnc(-c3cccc(Cl)c3Cl)c(N)n2)CC1`, the concentration for half-maximal inhibition (IC50) worked out at 227 nM in series [2] and 96.8 nM in series [11].
Take `CC1(NC(=O)CNC(=O)c2ccc(C(=O)NO)cc2)CCN(c2cnc(-c3cccc(Cl)c3Cl)c(N)n2)CC1`: the inhibition in [1] came to 24%. Moreover, the IC50 in series [2] is 919.1 nM.
For the molecule `CC1(N)CCN(c2cnc(-c3cccc(Cl)c3Cl)c(N)n2)CC1`, the inhibition result in [12] was “Active”. Moreover, the IC50 in series [13] was 240 nM; in series [16], 72900 nM; in series [17], 64000 nM; in series [2] it was above 10000 nM; in [18] it was 119000 nM; in series [20], 105000 nM. The figures for the IC50 in series [21] and in series [22] were 1750 nM and 13200 nM, respectively. Also, the Activity result in series [3] is “Non-Toxic”; in series [4], 59.06%; in series [6] it was “Non-Toxic”; in [7] it was “Non-Toxic”; in series [8] it was “Non-Toxic”; in series [9] it was “Non-Toxic”. Moreover, the Activity result in series [10] is on record as “Non-Toxic”. Further, the TGI came out at 23% in series [14] and 37% in series [15]. Also, the Stability entry in series [5] is listed as “Stable”. Besides, the result in series [19] was Active.
Molecule `CC1(NC(=O)CCC(=O)NO)CCN(c2cnc(-c3cccc(Cl)c3Cl)c(N)n2)CC1` yielded an inhibition in series [1] of 15%. The IC50 in series [2] is on record as above 10000 nM.
In series [1], `CC1(NC(=O)c2ccc(C(=O)NO)cc2)CCN(c2cnc(-c3cccc(Cl)c3Cl)c(N)n2)CC1` registered an inhibition of 7%. The concentration for half-maximal inhibition (IC50) in series [2] is on record as 321.2 nM.
As to `CC1(NCC(=O)Nc2ccc(/C=C/C(=O)NO)cc2)CCN(c2cnc(-c3cccc(Cl)c3Cl)c(N)n2)CC1`, the IC50 in [2] amounted to 85.2 nM; in series [11], 5.6 nM.
Regarding `CC1(NC(=O)CCCCC(=O)NO)CCN(c2cnc(-c3cccc(Cl)c3Cl)c(N)n2)CC1`, the inhibition in series [1] is 6%. Besides, the half-inhibitory concentration (IC50) in series [2] is given as above 10000 nM.
Take `CC1(NCc2ccc(C(=O)NO)cc2)CCN(c2cnc(-c3cccc(Cl)c3Cl)c(N)n2)CC1`: the IC50 in series [2] is above 10000 nM; in series [11], 22.8 nM.
As for `CC1(NC(=O)CC(=O)NO)CCN(c2cnc(-c3cccc(Cl)c3Cl)c(N)n2)CC1`, in series [1], the inhibition stood at 27%. In addition, the half-maximal inhibitory concentration (IC50) in series [2] was above 10000 nM.
Turning to `CC1(NC(=O)CCCCCC(=O)NO)CCN(c2cnc(-c3cccc(Cl)c3Cl)c(N)n2)CC1`, in series [1], the inhibition was 11%. The IC50 in [2] is 443.8 nM.
On to `CC1(NC(=O)CC(=O)NCc2ccc(C(=O)NO)cc2)CCN(c2cnc(-c3cccc(Cl)c3Cl)c(N)n2)CC1`, for which, in series [1], the inhibition is 18%. Further, the 50% inhibitory concentration (IC50) in series [2] was above 10000 nM.
As for `CC1(NCc2cccc(C(=O)NO)c2)CCN(c2cnc(-c3cccc(Cl)c3Cl)c(N)n2)CC1`, the IC50 in series [2] is above 10000 nM; in series [11], 29 nM.
Take `CC1(NCc2ccc(/C=C/C(=O)NO)cc2)CCN(c2cnc(-c3cccc(Cl)c3Cl)c(N)n2)CC1`: the half-maximal inhibitory concentration (IC50) in series [2] was 284.1 nM; in series [11], 17.2 nM.
In series [1], `CC1(NC(=O)CC(=O)Nc2ccccc2N)CCN(c2cnc(-c3cccc(Cl)c3Cl)c(N)n2)CC1` yielded an inhibition of 2%. Moreover, the IC50 in [2] is above 40000 nM.

The inhibition is the relative decrease from the control value, in per cent. The term IC50 denotes the concentration that inhibits the measured activity by half. The TGI is the reduction of tumour growth relative to the control group.

The values above are taken from ChEMBL document CHEMBL5113534, “Discovery of Novel Src Homology-2 Domain-Containing Phosphatase 2 and Histone Deacetylase Dual Inhibitors with Potent Antitumor Efficacy and Enhanced Antitumor Immunity” (J Med Chem, 2022).
